In ChEMBL document CHEMBL3108726, “Sorbicatechols A and B, antiviral sorbicillinoids from the marine-derived fungus Penicillium chrysogenum PJX-17” (J Nat Prod, 2014) one finds IC50 data, which are given here for three compounds.

Usually pIC50 stands for the negative decadic logarithm of the IC50, by convention in mol/L.

Molecules are shown by their SMILES. pIC50: −log10 of the molar value.

This assay relates to Influenza A virus. The assay can be described thus: Antiviral activity against Influenza A virus (A/Puerto Rico/8/34(H1N1)) infected in MDCK cells assessed as inhibition of virus-induced cytopathic effect after 48 hrs by crystal violet staining technique. It is filed as functional, organism-based. The following applies: A/Puerto Rico/8/1934(H1N1).
Consider `C/C=C/C=C/C(O)=C1/C(=O)[C@]2(C)C(=O)[C@@](C)(O)[C@H]1C[C@@H]2c1ccc(O)c(OC)c1`, for which the pIC50 is 4.07.
In the case of `C/C=C/C=C/C(O)=C1/C(=O)[C@]2(C)C(=O)[C@@](C)(O)[C@H]1C[C@H]2c1ccc(O)c(OC)c1`, the pIC50 is 3.95.
To `NC(=O)c1ncn([C@@H]2O[C@H](CO)[C@@H](O)[C@H]2O)n1` [RIBAVIRIN] belongs 4.08.
